Values of other authors as cited in US20220228277A1, “COMPACT GENERATOR FOR GENERATING STERILIZING MATERIALS” (priority 2021, published 2022).

How the values were obtained:
[1] = in a year
[2] = 20° C. water; also printed as 29.9 ppm
[3] = environment dependent

decay of sealed H2O2-H2O solution [1] [%]	SMILES	solubility of O3 in water [2] [µg/mL]	natural life of O3 (turns into O2) [3] [min]
10	OO [H2O2, hydrogen peroxide]		
	O=[O+][O-] [O3, ozone]	29.9	20 to 30
